Assay results taken from publication PMC12799407, “Differential RELA and GR recruitment to the BIRC3/BIRC2 locus: Molecular insight as to combinatorial regulation by proinflammatory cytokines and glucocorticoid” (Molecular Pharmacology, 2025).
Where “and” joins values, the source holds several entries; their conditions need not be identical. Equal values may be shown once. Read-outs that look alike come from different tables or passages of the source.

Legend:
R2 reporter = experiment: R2 luciferase reporter (BIRC3/BIRC2 locus) stably transfected in A549 cells; format: cell-based, human; conditions: for EC50: A549, 6 h; for pA2 (Schild analysis): Org34517 1 μM
Experimental: Data were assumed to be normally distributed and, unless otherwise indicated, are presented as means ± SD with scatterplots showing individual values. […] Multiple comparisons were made using one-way ANOVA with Tukey’s or Dunnett’s post hoc tests, as appropriate. Comparisons between 2 groups were performed by 2-tailed, paired Student’s t test. The number of independent experiments (N) is indicated in each graph and, being exploratory, sample sizes were not prespecified. […] Heat maps were generated using the R package “pheatmap.” Concentration-response relationships were fitted using the 4-parameter model that assumed symmetric variance or using the Gaddum-Schild model of competitive antagonism, as described previously.[43] Variance in pEC50, EMax, or pA2 are provided by Prism as mean ±SE, whereas all curves are plotted as means ±SD (but without scatterplots). Because all analyses were exploratory and were not designed to test prespecified statistical null hypotheses, stated P values should be viewed as being descriptive rather than as hypothesis testing.

R5 reporter = experiment: R5 luciferase reporter stably transfected in A549 cells; format: cell-based, human; conditions: for EC50: Homo sapiens
Experimental: (§2) Data were assumed to be normally distributed and, unless otherwise indicated, are presented as means ± SD with scatterplots showing individual values. With the exception of pEC50 values, numerical values in tables and text are provided to one decimal place, or where appropriate 2 significant figures of accuracy. […] Multiple comparisons were made using one-way ANOVA with Tukey’s or Dunnett’s post hoc tests, as appropriate. Comparisons between 2 groups were performed by 2-tailed, paired Student’s t test. The number of independent experiments (N) is indicated in each graph and, being exploratory, sample sizes were not prespecified. […] GraphPad Prism software (version 11; Dotmatics) and/or the R package “ggplot2” was used for graph plotting and statistical analyses. Heat maps were generated using the R package “pheatmap.” Concentration-response relationships were fitted using the 4-parameter model that assumed symmetric variance or using the Gaddum-Schild model of competitive antagonism, as described previously.[43] Variance in pEC50, EMax, or pA2 are provided by Prism as mean ±SE, whereas all curves are plotted as means ±SD (but without scatterplots).

R8 reporter [1] = experiment: R8 luciferase reporter stably transfected in A549 cells; conditions: for EC50 / inhibition at 30 µM: Homo sapiens; for EC50: A549, read-out: pEC50, R8 reporter (converted), Schild experiments (Fig. 7D); for inhibition at 30 µM: A549, read-out: inhibition of IL-1β-plus-dexamethasone-induced R8 reporter activity
Experimental: as §2

R4 reporter = experiment: R4 luciferase reporter stably transfected in A549 cells; format: cell-based, human; conditions: for EC50: Homo sapiens, A549, read-out: EC50, inhibition of IL-1β-induced R4 reporter activity
Experimental: as §2

BIRC3 mRNA = experiment: qPCR of BIRC3 mRNA in A549 cells; format: cell-based, human; conditions: for EC50: Homo sapiens, A549, 2 h, IL-1β-induced BIRC3 mRNA, 2 h; for repression of IL-1β-induced BIRC3 mRNA: at 30 μM, IL-1β 2 h
Experimental: (§1) Following treatments, total RNA was extracted and 500 ng used for cDNA synthesis according to standard procedures.[34] After 1:5 dilution, cDNA (2.5 μL) was analyzed by qPCR (StepOnePlus, Applied […] or QuantStudio3, Thermo Fisher Scientific) with Fast SYBR Green Master Mix (4385618, Thermo Fisher Scientific). Amplification conditions and primers specific for BIRC3, BIRC2, and glyceraldehyde-3-phosphate dehydrogenase mRNAs were as described.[9] In each case, relative cDNA concentrations were obtained from standard curves generated by serial dilution of a stimulated cDNA sample that was analyzed in parallel with the experimental samples. Primer specificity was assessed by melt curve analysis where a single peak in the change of fluorescence with temperature was taken to indicate specificity.

BIRC2 mRNA = experiment: qPCR of BIRC2 mRNA in A549 cells; format: cell-based, human; conditions: for effect on IL-1β-induced BIRC2 mRNA expression: concentration series, IL-1β 2 h (Fig. 6C)
Experimental: as §1

NF-κB reporter = tested on: NF-κB reporter; parameters: method as in PMID 17322026, PMID 37863662, PMID 38941070; conditions: read-out: EC50, inhibition of IL-1β-induced NF-κB reporter activity; cited from earlier work
R8 reporter [2] = tested on: R8 reporter
Experimental: as §2

GR recruitment to FKBP5 = experiment: ChIP-qPCR of GR recruitment to FKBP5 in A549 cells; format: cell-based, human; conditions: budesonide 300 nM, 1 hour
Experimental: (§3) After cell treatments, formaldehyde (PI28906, Thermo Fisher Scientific) was added to a final concentration of 1% for 10 minutes. […] Following cytoplasmic and then nuclear lysis, lysates were sonicated with 30 high-power bursts in a 30 seconds on-off cycle at 4 °C using a Bioruptor (Diagenode). Antibodies: GR, GR-356,[36] RELA (NF-κB p65, D14E12, #8242, Cell Signaling Technologies); RNA polymerase 2 (RNAP2) (Rpb1 NTD D8L4Y, #14958, Cell Signaling Technologies) used for ChIP were preincubated with protein G magnetic Dynabeads (10004D, Thermo Fisher Scientific) overnight at 4 °C and beads were washed as previously described. Nuclear lysates were then incubated with the antibody-coated beads overnight prior to extensive washing. Following reversal of crosslinks, DNA was purified with a ChIP DNA Clean & Concentrator kit (D5205, Zymo Research). Fast SYBR Green Master Mix (Thermo Fisher Scientific) was used in standard quantitative polymerase chain reaction (qPCR) reactions to detect DNA regions of interest. […] Relative occupancy at each region was calculated as ΔΔ threshold cycle (CT) after normalization to the geometric mean of the threshold cycle values for 3 negative control regions (Gene symbols: OLIG3, MYOD1, and MYOG).

R7 reporter = experiment: R7 luciferase reporter stably transfected in A549 cells; format: cell-based, human
Experimental: as §2

R0 reporter = experiment: R0 luciferase reporter stably transfected in A549 cells; format: cell-based, human; conditions: IL-1β 1 ng/mL, 6 h (Fig. 3B,C)
Experimental: as §2

R3 reporter = experiment: R3 luciferase reporter stably transfected in A549 cells; format: cell-based, human; conditions: IL-1β 1 ng/mL, 6 h (Fig. 3B,C)
Experimental: Data were assumed to be normally distributed and, unless otherwise indicated, are presented as means ± SD with scatterplots showing individual values. […] Multiple comparisons were made using one-way ANOVA with Tukey’s or Dunnett’s post hoc tests, as appropriate. Comparisons between 2 groups were performed by 2-tailed, paired Student’s t test. The number of independent experiments (N) is indicated in each graph and, being exploratory, sample sizes were not prespecified. […] GraphPad Prism software (version 11; Dotmatics) and/or the R package “ggplot2” was used for graph plotting and statistical analyses. Heat maps were generated using the R package “pheatmap.” Concentration-response relationships were fitted using the 4-parameter model that assumed symmetric variance or using the Gaddum-Schild model of competitive antagonism, as described previously.[43] Variance in pEC50, EMax, or pA2 are provided by Prism as mean ±SE, whereas all curves are plotted as means ±SD (but without scatterplots).

[3] = tested on: RELA recruitment to CXCL8; experiment: ChIP-qPCR of RELA recruitment to CXCL8 in A549 cells; format: cell-based, human; conditions: IL-1β 1 ng/mL, 1 hour
Experimental: as §3

[4] = Homo sapiens, R2 reporter, glucocorticoid + IL-1β (1 ng/mL), 6 h
[5] = Homo sapiens, R2 reporter, glucocorticoid, naïve, 6 h
[6] = A549, 6 h, R5 reporter, glucocorticoid + IL-1β (1 ng/mL), 6 h
[7] = A549, 6 h, R5 reporter, glucocorticoid, naïve, 6 h
[8] = R5 reporter, glucocorticoid + IL-1β (1 ng/mL), % of 1 μM dexamethasone, 6 h
[9] = R5 reporter, glucocorticoid, naïve, expressed as % of 1 μM dexamethasone, 6 h
[10] = R5 reporter, IL-1β, naïve, n.r. = no significant response
[11] = R8 reporter, IL-1β, naïve (Table 1), n.r. = no significant response
[12] = R8 reporter, IL-1β, naïve, budesonide series (Supplemental Table 1), n.r. = no significant response

C[C@@H]1C[C@H]2[C@@H]3CCC4=CC(=O)C=C[C@]4(C)[C@@]3(F)[C@@H](O)C[C@]2(C)[C@@]1(O)C(=O)CO [Dexamethasone, dexamethasone]
EC50 (R2 reporter; [4]): 10.2 nM | EC50 (R2 reporter; [5]): 8.51 nM | EC50 (R5 reporter; [6]): 10 nM | EC50 (R5 reporter; [7]): 11.5 nM | EC50 (R5 reporter; A549, R5 reporter, dexamethasone, Schild experiments (Fig. 7C), read-out: pEC50 (converted)): 11.7 nM | EMax (% of 1 μM dexamethasone ± SE) (R5 reporter; [8]): 16.3% ± 1.8 | EMax (% of 1 μM dexamethasone ± SE) (R5 reporter; [9]): 101% ± 2 | EC50 (R8 reporter [1]; dexamethasone alone): 10.7 nM | EC50 (R8 reporter [1]; dexamethasone in the presence of IL-1β): 8.32 nM

O=C(Nc1cc(Cl)cc2c1[nH]c1cnccc12)c1cccnc1 [PS-1145, N-(6-chloro-9h-pyrido[3,4-b]indol-8-yl)-3-pyridinecarboxamide]
inhibition of IL-1β-plus-dexamethasone-induced reporter activity (R2 reporter; R2 reporter, inhibitor 30 μM (Fig. 6A)): unaffected | reduction in reporter activity induced by dexamethasone (R2 reporter; R2 reporter, inhibitor 30 μM, dexamethasone 1 μM (Fig. 6A)): unaffected | reduction of dexamethasone-induced R4 reporter activity (R4 reporter; inhibitor 30 μM, dexamethasone 1 μM): 24.5% | EC50 (BIRC3 mRNA): 2750 nM | repression of IL-1β-induced BIRC3 mRNA (BIRC3 mRNA): ~54% | effect on IL-1β-induced BIRC2 mRNA expression (BIRC2 mRNA): no effect on IL-1β-induced expression until a concentration of 100 μM | EC50 (NF-κB reporter): 1000 to 2000 nM | inhibition at 30 µM (R8 reporter [1]): > 60%

COc1c(Cl)cc2c([nH]c3cnccc32)c1NC(=O)c1cccnc1C.Cl.Cl [ML120B, N-(6-Chloro-7-methoxy-9H-pyrido[3,4-b]indol-8-yl)-2-methyl-3-pyridinecarboxamide dihydrochloride]
reduction in reporter activity in the presence of IL-1β (R2 reporter): 27.8% | reduction in reporter activity induced by dexamethasone (R2 reporter): 34.0% | EC50 (R4 reporter): ≥ 30000 nM | EC50 (BIRC3 mRNA): 2950 nM | repression of IL-1β-induced BIRC3 mRNA (BIRC3 mRNA): ~54% | EC50 (BIRC2 mRNA; Homo sapiens, A549, 2 h): 10.5 µM | effect on IL-1β-induced BIRC2 mRNA expression (BIRC2 mRNA): partial repressive effect | EC50 (R8 reporter [2]): 10 µM | EC50 (NF-κB reporter): 8200 nM | inhibition at 30 µM (R8 reporter [1]): > 75%

CC#C[C@]1(O)CCC2C3CCC4=CC(=O)CCC4=C3[C@@H](c3ccc4c(c3)OCO4)C[C@@]21C (some centres unmarked) [Org34517]
pA2 (Schild analysis) (R2 reporter; R2 reporter, antagonism of dexamethasone + IL-1β): 7.99 | pA2 (Schild analysis) (R2 reporter; R2 reporter, antagonism of dexamethasone, consistent with antagonism at GR): 7.71 | effect on induced R4 reporter activity (R4 reporter; Org34517 1 μM, P ≤ .05 and .01): reduced | dexamethasone-induced luciferase activity in the presence of Org34517, fold (R5 reporter; R5 reporter, Org34517 1 μM, dexamethasone 1 μM): 1.7 fold | pA2 (Schild analysis) (R5 reporter; R5 reporter, antagonism of dexamethasone, Org34517 1 μM): 8.33 ±0.14 | IL-1β-plus-dexamethasone-induced reporter activity in the presence of Org34517, fold (R8 reporter [1]; R8 reporter, Org34517 1 μM): 6.3 fold | dexamethasone-induced reporter activity in the presence of Org34517, fold (R8 reporter [1]; R8 reporter, Org34517 1 μM, dexamethasone 1 μM): 1.4 fold | pA2 (Schild analysis) (R8 reporter [1]; R8 reporter, antagonism of dexamethasone + IL-1β, Org34517 1 μM): 8.14 ± 0.11 | pA2 (Schild analysis) (R8 reporter [1]; R8 reporter, antagonism of dexamethasone, Org34517 1 μM): 8.14 ± 0.11

CCCC1O[C@@H]2C[C@H]3[C@@H]4CCC5=CC(=O)C=C[C@]5(C)[C@H]4[C@@H](O)C[C@]3(C)[C@]2(C(=O)CO)O1 (some centres unmarked) [Budesonide, budesonide]
EC50 (R2 reporter; [4]): 5.89 nM | EC50 (R2 reporter; [5]): 3.47 nM | EMax (Fold ± SE) (R2 reporter; R2 reporter, glucocorticoid + IL-1β (1 ng/mL), 6 h): 3.3 Fold | EMax (Fold ± SE) (R2 reporter; R2 reporter, glucocorticoid concentration-response, naïve, 6 h): 2.4 Fold | EC50 (R5 reporter; [6]): 12.3 nM | EC50 (R5 reporter; [7]): 6.61 nM | EMax (% of 1 μM dexamethasone ± SE) (R5 reporter; [8]): 9.3% | EMax (% of 1 μM dexamethasone ± SE) (R5 reporter; [9]): 92.2% | recruitment of GR to FKBP5, fold (GR recruitment to FKBP5): 240 ± 150 fold | EMax (Fold ± SE) (R8 reporter [1]; R8 reporter, glucocorticoid + IL-1β (1 ng/mL), 6 h): 16.2 Fold | EMax (Fold ± SE) (R8 reporter [1]; R8 reporter, glucocorticoid, naïve, 6 h): 2.2 Fold

NC(=O)Nc1sc(-c2ccc(F)cc2)cc1C(N)=O [TPCA-1, 2-[(aminocarbonyl)amino]-5-(4-fluorophenyl)-3-thiophenecarboxamide]
inhibition at 30 µM (R2 reporter; Homo sapiens, A549, read-out: inhibition of IL-1β-plus-dexamethasone-induced reporter activity): 56% | EC50 (R4 reporter): 2600 nM | repression of IL-1β-induced BIRC3 mRNA (BIRC3 mRNA): near complete inhibition | effect on IL-1β-induced BIRC2 mRNA expression (BIRC2 mRNA): below 10 μM, TPCA-1 was without effect | EC50 (NF-κB reporter): 2000 nM | inhibition of IL-1β-plus-dexamethasone-induced R8 reporter activity (R8 reporter [1]; inhibitor 30 μM): complete inhibition

IL-1β: Recombinant human IL-1β (R&D Systems), proinflammatory cytokine
EMax (Fold ± SE) (R2 reporter; R2 reporter, IL-1β + dexamethasone (1 μM), 6 h): 3.8 ± 0.2 Fold | reporter activity, fold (R2 reporter; R2 reporter, IL-1β at 1 ng/mL in the presence of dexamethasone (1 μM) (Fig. 3F)): 4.0 ± 1.1 fold | EMax (Fold ± SE) (R2 reporter; R2 reporter, IL-1β concentration-response, naïve, n.r. = no significant response): n.r. | pEC50 (−log[g/ mL] ± SE) (R2 reporter; R2 reporter, IL-1β, naïve, n.r. = no significant response): n.r. | EMax (Fold ± SE) (R4 reporter; R4 reporter, IL-1β + Budesonide (300 nM)): 4.8 Fold | EMax (Fold ± SE) (R4 reporter; R4 reporter, IL-1β + dexamethasone (1 μM), 6 h): 4.3 ± 0.1 Fold | EMax (Fold ± SE) (R4 reporter; R4 reporter, IL-1β, naïve, 6 h (Table 1)): 3.5 ± 0.1 Fold | EMax (Fold ± SE) (R4 reporter; R4 reporter, IL-1β, naïve, budesonide series (Supplemental Table 1)): 3.6 Fold | reporter activity, fold of no stimulation ± SD (R4 reporter; R4 reporter, dexamethasone 1 μM, IL-1β 1 ng/mL or both, 6 h (Fig. 3C)): 3.3 ± 1.9 fold | reporter activity, fold of not stimulated (R4 reporter; R4 reporter, naïve cells, dexamethasone 1 μM, IL-1β 1 ng/mL or both, 6 h (Fig. 5C)): 2.8 ± 0.7 fold | EMax (% of 1 μM dexamethasone ± SE) (R5 reporter; R5 reporter, IL-1β + dexamethasone (1 μM): inhibition of dexamethasone-induced activity, % of 1 μM dexamethasone): 15.1% ± 3.1 | EMax (R5 reporter; [10]): n.r. | pEC50 (−log[g/ mL] ± SE) (R5 reporter; [10]): n.r. | reporter inducibility, fold (R7 reporter; IL-1β 1 ng/mL (Fig. 6A)): 2.3 fold | reporter inducibility, fold (R7 reporter; IL-1β 1 ng/mL, 6 h (Fig. 5C)): 2.0 ± 0.9 fold | reporter activity, fold of no stimulation ± SD (R7 reporter; dexamethasone 1 μM, IL-1β 1 ng/mL or both, 6 h (Fig. 3C)): 2.0 ± 0.7 fold and 2.0 fold | reporter activity, fold of no stimulation ± SD (R0 reporter): 1.6 ± 0.5 fold | reporter activity, fold of no stimulation ± SD (R3 reporter): 1.4 ± 0.3 fold | recruitment of RELA to CXCL8, fold [3]: 48 ± 11 fold | EMax (Fold ± SE) (R8 reporter [1]; R8 reporter, IL-1β + Budesonide (300 nM)): 9.3 Fold | EMax (Fold ± SE) (R8 reporter [1]; R8 reporter, IL-1β + dexamethasone (1 μM), 6 h): 16.5 ± 1.0 Fold | reporter activity, fold (R8 reporter [1]; R8 reporter, IL-1β alone (Fig. 3I)): 1.2 ± 0.3 fold | EMax (Fold ± SE) (R8 reporter [1]; [11]): n.r. | pEC50 (−log[g/ mL] ± SE) (R8 reporter [1]; [11]): n.r. | EMax (Fold ± SE) (R8 reporter [1]; [12]): n.r. | pEC50 (-log[g/ml] ±SE) (R8 reporter [1]; [12]): n.r. | reporter activity, fold of no stimulation ± SD (R8 reporter [1]; R8 reporter, dexamethasone 1 μM, IL-1β 1 ng/mL or both, 6 h (Fig. 3C)): 1.3 ± 0.7 fold
